This is an account of results in PubChem BioAssay (NCI).

Values joined by “and” are separate entries in the source; they are usually repeats but may differ in a detail not shown here. Equal entries are not always repeated.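 Cells were grown in 96-well plates and exposed to each compound for 48 hours at five concentrations; endpoints were interpolated linearly between bracketing concentrations, or set to the highest concentration if not reached. GI50 is the concentration that inhibits growth by half. Definition used: TGI = concentration required for complete inhibition of growth.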 Bounds are passed on as bounds.

Among the test systems are XF 498 CNS; DLD-1 colon; LXFL 529 NSCLC; DMS 273 small cell lung; SNB-78 CNS; RXF-631 renal; DMS 114 small cell lung; HOP-18 NSCLC; P388 leukemia; SN12K1 renal.
What all share (test): NCI tumour cell line growth inhibition, 48 h

Take `COc1cccc(/C=N/[N-]C(N)=O)c1[O-].[Cu+2].[OH3+].c1cnc2c(c1)ccc1cccnc12`: in the assay with XF 498 CNS, the GI50 is 2.3 µM and the TGI is 6.36 µM.

Consider `O=S1c2ccccc2N=C(c2ccc3ccccc3c2)CC1c1ccccc1` (stereo not drawn), for which the TGI is 48.4 µM with DLD-1 colon; above 100 µM with XF 498 CNS; 29.8 µM in the assay on LXFL 529 NSCLC; above 100 µM in the assay with DMS 273 small cell lung; above 100 µM in the assay on SNB-78 CNS.

Consider `CCOC(=O)C(C)OC(=O)c1ccc(C)cc1` (stereo not drawn), for which the TGI in the assay on DLD-1 colon, in the assay with RXF-631 renal, in the assay on XF 498 CNS, in the assay on LXFL 529 NSCLC, in the assay with DMS 114 small cell lung and in the assay with DMS 273 small cell lung was above 100 µM in each case. For the same compound, the TGI with HOP-18 NSCLC and with SNB-78 CNS was above 100 µM in each case.

In the case of `O=CC(O)C(O)C(O)COc1cc(CO)cc2c1C(=O)c1ccccc1C2=O` (stereo not drawn), the TGI in the assay with DLD-1 colon, in the assay on RXF-631 renal, in the assay on XF 498 CNS, in the assay on LXFL 529 NSCLC, with DMS 114 small cell lung and in the assay on DMS 273 small cell lung was above 100 µM in each case. The TGI with HOP-18 NSCLC and in the assay with SNB-78 CNS was above 100 µM in each case.

In the case of `C=C1CCCC(C)(C)[C@@H]1CC/C(C)=C/Cn1c2cccc(=O)c-2nc2ccccc21`, the GI50 in the assay on DLD-1 colon was 4.86 µM; in the assay with XF 498 CNS, 2.8 µM; in the assay on SN12K1 renal, 2.89 µM; with DMS 273 small cell lung it was 3.02 µM; in the assay on HOP-18 NSCLC, 37.2 µM; with SNB-78 CNS, 4.35 µM. Also, the TGI in the assay with P388 leukemia was above 100 µM; in the assay with DMS 114 small cell lung, 2.3 µM; in the assay with SN12K1 renal, 15.5 µM and 13.2 µM; with DMS 273 small cell lung, 24.1 µM and 3.29 µM; in the assay on HOP-18 NSCLC it was > 100 µM and 18.2 µM; with SNB-78 CNS, above 100 µM.

As for `NC(N)=NS(=O)(=O)c1ccc(Nc2c3ccccc3nc3c(C(=O)N4CCN(CCO)CC4)ccc(Cl)c23)cc1`, the TGI with DLD-1 colon, in the assay with XF 498 CNS, with DMS 114 small cell lung and with SNB-78 CNS was above 100 µM in each case.

For the compound `CCN(CC)/[N+]([O-])=N/OC`, the TGI in the assay on XF 498 CNS, in the assay on LXFL 529 NSCLC, in the assay with DMS 273 small cell lung and with SNB-78 CNS was above 100 µM throughout.
